Experimental data from patent US12258365B2, “Organophosphorus-substituted compounds as c-MET inhibitors and therapeutic uses thereof” (BETA PHARMA, INC., priority 2018, dated 2025).

The molecules below were run against c-MET (Homo sapiens, UniProt P08581) (assay: Biochemical kinase assay (33P-ATP, filter-binding)). Details: radiometric 33P-ATP filter-binding kinase reaction, 20 min preincubation, 2 hours at room temperature.
Method: Reaction Buffer: 20 mM Hepes (pH 7.5), 10 mM MgCl2, 1 mM EGTA, 0.02%, Brij35, 0.02 mg/mL BSA, 0.1 mM Na3VO4, 2 mM DTT and 1% DMSO.
Required cofactors were added individually to each kinase reaction.
The testing compounds were dissolved in 100% DMSO to specific concentration. The serial dilution was conducted by Integra Viaflo Assist in DMSO.
• 1. Prepare substrate in freshly prepared Reaction Buffer. • 2. Deliver any required cofactors to the substrate solution above. • 3. Deliver kinase into the substrate solution and gently mix. • 4. Deliver compounds in 100% DMSO into the kinase reaction mixture by Acoustic technology (Echo550; nanoliter range), incubate for 20 min at room temp. • 5. Deliver ^33P-ATP (Specific activity 10 μCi/μL) into the reaction mixture to initiate the reaction. • 6. Incubate for 2 hours at room temperature. • 7. Detect radioactivity by filter-binding method. • 8. Kinase activity data were expressed as the percent remaining kinase activity in test samples compared to vehicle (DMSO) reactions. IC50 values and curve fits were obtained using Prism (GraphPad Software) (Table 1).

Sequence of c-MET (P08581 25-1390): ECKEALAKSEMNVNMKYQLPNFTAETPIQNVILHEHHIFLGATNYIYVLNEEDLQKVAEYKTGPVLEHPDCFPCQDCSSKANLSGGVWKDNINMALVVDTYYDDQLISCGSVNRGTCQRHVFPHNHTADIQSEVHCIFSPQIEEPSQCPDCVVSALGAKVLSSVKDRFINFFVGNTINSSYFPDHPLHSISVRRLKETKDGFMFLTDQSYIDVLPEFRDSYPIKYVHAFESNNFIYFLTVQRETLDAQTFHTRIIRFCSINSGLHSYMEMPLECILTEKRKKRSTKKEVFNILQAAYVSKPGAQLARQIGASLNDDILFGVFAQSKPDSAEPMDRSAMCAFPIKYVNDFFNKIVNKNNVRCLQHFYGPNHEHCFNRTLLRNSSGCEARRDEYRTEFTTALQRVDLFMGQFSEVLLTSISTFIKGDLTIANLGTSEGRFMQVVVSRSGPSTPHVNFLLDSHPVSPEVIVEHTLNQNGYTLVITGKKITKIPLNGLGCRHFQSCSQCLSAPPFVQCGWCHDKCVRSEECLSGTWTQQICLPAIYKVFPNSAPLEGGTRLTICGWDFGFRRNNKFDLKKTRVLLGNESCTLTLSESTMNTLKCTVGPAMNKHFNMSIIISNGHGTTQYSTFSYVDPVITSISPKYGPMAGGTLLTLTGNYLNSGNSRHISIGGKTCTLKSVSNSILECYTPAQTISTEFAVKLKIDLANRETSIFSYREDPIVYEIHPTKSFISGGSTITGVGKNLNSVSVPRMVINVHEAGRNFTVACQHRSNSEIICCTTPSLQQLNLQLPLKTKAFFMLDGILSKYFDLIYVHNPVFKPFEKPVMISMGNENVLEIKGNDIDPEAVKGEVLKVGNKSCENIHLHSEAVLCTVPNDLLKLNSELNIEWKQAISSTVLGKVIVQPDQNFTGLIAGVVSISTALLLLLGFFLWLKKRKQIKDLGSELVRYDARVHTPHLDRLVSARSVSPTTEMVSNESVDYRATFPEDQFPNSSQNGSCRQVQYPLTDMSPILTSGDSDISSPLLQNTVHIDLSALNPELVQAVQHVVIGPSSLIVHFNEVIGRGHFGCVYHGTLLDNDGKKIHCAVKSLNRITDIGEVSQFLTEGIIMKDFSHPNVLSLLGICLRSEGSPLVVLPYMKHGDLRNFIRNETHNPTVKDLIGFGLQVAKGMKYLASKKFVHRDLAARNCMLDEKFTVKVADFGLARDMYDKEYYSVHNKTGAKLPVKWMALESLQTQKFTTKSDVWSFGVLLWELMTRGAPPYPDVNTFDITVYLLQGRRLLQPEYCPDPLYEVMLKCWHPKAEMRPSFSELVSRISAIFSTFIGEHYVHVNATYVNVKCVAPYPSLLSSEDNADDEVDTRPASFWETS

Row | IC50 [nM] | SMILES
1 | < 10 | CP(C)(=O)c1ccc(-c2cnc3nnn(Cc4ccc5ncccc5c4)c3n2)cc1 [Example 1, Dimethyl(4-(1-(quinolin-6-ylmethyl)-1H-[1,2,3]triazolo[4,5-b]pyrazin-6-yl)phenyl)-phosphine oxide]
2 | < 10 | CP(=O)(O)Cc1ccc(-c2cnc3nnn(Cc4ccc5ncccc5c4)c3n2)cc1 [Example 3, Methyl(4-(1-(quinolin-6-ylmethyl)-1H-[1,2,3]triazolo[4,5-b]pyrazin-6-yl)benzyl)-phosphinic Acid]
3 | 11 to 20 | CP(C)(=O)c1ccc(-c2cnc3nnn(Cc4ccc5ncccc5c4)c3n2)c(F)c1 [Example 4, (3-Fluoro-4-(1-(quinolin-6-ylmethyl)-1H-[1,2,3]triazolo[4,5-b]pyrazin-6-yl)phenyl)dimethylphosphine oxide]
4 | < 10 | CP(C)(=O)c1ccc(-c2cnc3nnn(Cc4ccc5ncccc5c4)c3n2)cc1F [Example 5, (2-Fluoro-4-(1-(quinolin-6-ylmethyl)-1H-[1,2,3]triazolo[4,5-b]pyrazin-6-yl)phenyl)dimethyl-phosphine Oxide]
5 | < 10 | CP(C)(=O)c1ccc(-c2cnc3nnn(Cc4ccc5nccn5c4)c3n2)cc1 [Example 6, (4-(1-(Imidazo[1,2-a]pyridin-6-ylmethyl)-1H-[1,2,3]triazolo[4,5-b]pyrazin-6-yl)phenyl)dimethylphosphine Oxide]
6 | 11 to 20 | CP(C)(=O)c1cccc(-c2cnc3nnn(Cc4ccc5nccn5c4)c3n2)c1 [Example 7, (3-(1-(Imidazo[1,2-a]pyridin-6-ylmethyl)-1H-[1,2,3]triazolo[4,5-b]pyrazin-6-yl)phenyl)-dimethylphosphine Oxide]
7 | 11 to 20 | CP(C)(=O)c1cccc(-c2cnc3nnn(Cc4ccc5ncccc5c4)c3n2)c1 [Example 8, Dimethyl(3-(1-(quinolin-6-ylmethyl)-1H-[1,2,3]triazolo[4,5-b]pyrazin-6-yl)phenyl)phosphine Oxide]
8 | 21 to 100 | CP(C)(=O)Cn1cc(-c2cnc3nnn(Cc4ccc5ncccc5c4)c3n2)cn1 [Example 9, Dimethyl((4-(1-(quinolin-6-ylmethyl)-1H-[1,2,3]triazolo[4,5-b]pyrazin-6-yl)-1H-pyrazol-1-yl)methyl)phosphine Oxide]
9 | 21 to 100 | CP(C)(=O)Cn1cc(-c2cnc3nnn(Cc4ccc5nccn5c4)c3n2)cn1 [Example 10, ((4-(1-(Imidazo[1,2-a]pyridin-6-ylmethyl)-1H-[1,2,3]triazolo[4,5-b]pyrazin-6-yl)-1H-pyrazol-1-yl)methyl)dimethylphosphine Oxide]
10 | < 10 | CP(C)(=O)c1ccc(Nc2cnc3nnn(Cc4ccc5ncccc5c4)c3n2)cc1 [Example 11, Dimethyl(4-((1-(quinolin-6-ylmethyl)-1H-[1,2,3]triazolo[4,5-b]pyrazin-6-yl)amino)phenyl)phosphine Oxide]
11 | < 10 | CP(C)(=O)c1ccc(Nc2cnc3nnn(Cc4ccc5ncccc5c4)c3n2)cc1F [Example 12, (2-Fluoro-4-((1-(quinolin-6-ylmethyl)-1H-[1,2,3]triazolo[4,5-b]pyrazin-6-yl)amino)phenyl)dimethylphosphine Oxide]
12 | 21 to 100 | CP(C)(=O)c1cccc(-c2ccc3nnc(C(F)(F)c4ccc5nccn5c4)n3n2)c1 [Example 13, (3-(3-(Difluoro(imidazo[1,2-a]pyridin-6-yl)methyl)-[1,2,4]triazolo[4,3-b]pyridazin-6-yl)phenyl)dimethylphosphine Oxide]
13 | 1000 to 6000 | CP(C)(=O)c1ccc(-c2ccc3nnc(C(F)(F)c4ccc5nccn5c4)n3n2)cc1 [Example 14, (4-(3-(Difluoro(imidazo[1,2-a]pyridin-6-yl)methyl)-[1,2,4]triazolo[4,3-b]pyridazin-6-yl)phenyl)dimethylphosphine Oxide]
14 | < 10 | CC(c1ccc2nccn2c1)n1nnc2ncc(-c3ccc(P(C)(C)=O)cc3)nc21 (stereo not shown) [Example 15, (4-(1-(1-(Imidazo[1,2-a]pyridin-6-yl)ethyl)-1H-[1,2,3]triazolo[4,5-b]pyrazin-6-yl)phenyl)dimethylphosphine Oxide]
15 | 11 to 20 | CP(C)(=O)c1ccc(-c2cnc3nnn(Cc4ccc5c(c4)CCO5)c3n2)cc1 [Example 16, (4-(1-((2,3-Dihydrobenzofuran-5-yl)methyl)-1H-[1,2,3]triazolo[4,5-b]pyrazin-6-yl)phenyl)dimethylphosphine Oxide]
16 | 21 to 100 | CP(C)(=O)c1ccc(-c2cnc3nnn(Cc4ccc5ncc(F)n5c4)c3n2)cc1 [Example 17, (4-(1-((3-Fluoroimidazo[1,2-a]pyridin-6-yl)methyl)-1H-[1,2,3]triazolo[4,5-b]pyrazin-6-yl)phenyl)dimethylphosphine Oxide]
17 | 1000 to 6000 | CP(C)(=O)c1cnc2nnn(Cc3ccc4ncccc4c3)c2n1 [Example 18, Dimethyl(1-(quinolin-6-ylmethyl)-1H-[1,2,3]triazolo[4,5-b]pyrazin-6-yl)phosphine Oxide]
18 | < 10 | CC(c1ccc2ncccc2c1)n1nnc2ncc(-c3ccc(P(C)(C)=O)cc3)nc21 (stereo not shown) [Example 19, Dimethyl(4-(1-(1-(quinolin-6-yl)ethyl)-1H-[1,2,3]triazolo[4,5-b]pyrazin-6-yl)phenyl)phosphine Oxide]
19 | < 10 | Cn1cc2cc(Cn3nnc4ncc(-c5ccc(P(C)(C)=O)cc5)nc43)c(F)cc2n1 [Example 20, (4-(1-((6-Fluoro-2-methyl-2H-indazol-5-yl)methyl)-1H-[1,2,3]triazolo[4,5-b]pyrazin-6-yl)phenyl)dimethylphosphine Oxide]
20 | < 10 | Cn1cc2cc(Cn3nnc4ncc(-c5ccc(P(C)(C)=O)c(F)c5)nc43)c(F)cc2n1 [Example 21, (2-fluoro-4-(1-((6-fluoro-2-methyl-2H-indazol-5-yl)methyl)-1H-[1,2,3]triazolo[4,5-b]pyrazin-6-yl)phenyl)-dimethylphosphine oxide]
21 | < 10 | Cn1cc2cc(Cn3nnc4ncc(-c5ccc(P(C)(C)=O)c(F)c5)nc43)ccc2n1 [Example 22, (2-Fluoro-4-(1-((2-methyl-2H-indazol-5-yl)methyl)-1H-[1,2,3]triazolo[4,5-b]pyrazin-6-yl)phenyl)dimethylphosphine Oxide]

Row | SMILES | IC50 [nM]
22 | CCOP(C)(=O)Cc1ccc(-c2cnc3nnn(Cc4ccc5ncccc5c4)c3n2)cc1 (stereo not shown) [Example 2, Ethyl methyl(4-(1-(quinolin-6-ylmethyl)-1H-[1,2,3]triazolo[4,5-b]pyrazin-6-yl)benzyl)-phosphinate] | < 10
